We go through five compounds from paper PMC12567268 (Pharmaceuticals, 2025).

For data set [1] the following is noted: healthy human subjects, cited from earlier work.
For data set [2] the following is noted: cited from earlier work.
The nature of data set [3]: In vivo PK DDI study of TOF with or without RTV in rats (plasma LC-MS/MS, NCA). Also on record: species or system Sprague–Dawley rats. The settings on record: for concentration at 12 h: oral, rat plasma, 12 h after TOF 10 mg/kg oral. As to the method: The rats were randomly divided into three groups (eight rats per group) after 1 week of acclimatization. Each rat was pretreated with RTV by oral gavage at different doses for four consecutive days (from Day 1 to Day 4) to ensure steady-state CYP3A inhibition, based on studies indicating rapid onset of inhibition. Group 1 (control group) received the vehicle (normal saline). Groups 2 and 3 served as test groups and received 10 and 20 mg/kg RTV once daily (QD), respectively. […] The collected samples were centrifuged at 10,000 rpm for 10 min at 4 °C to separate the plasma and stored at −80 °C until analysis.
Plasma samples were prepared by protein precipitation with acetonitrile containing domperidone as an internal standard (100 ng/mL). After vortex mixing and centrifugation at 15,000× g for 10 min at 4 °C, the supernatant was analyzed by LC-MS/MS with an injection volume of 5 μL. Chromatographic separation was achieved on a C18 reversed-phase column with a mobile phase of 0.1% formic acid in water and acetonitrile at a flow rate of 0.4 mL/min. Mass spectrometry was performed in positive ion mode with an electrospray ionization probe. […] Detailed instrument settings, sample preparation, calibration, and validation data are provided in Supplementary Material (Tables S1 and S2; Figure S1).

For data set [4] the following is noted: rats; cited from earlier work.
The conditions of data set [5]: humans; cited from earlier work.
For data set [6] the following is noted: cited from earlier work. The source holds these as a separate data set.
For the next data set, the system named is CYP3A4. The settings on record: in vitro study; cited from earlier work.
For data set [7] the following is noted: healthy subjects, co-administration of RTV 400 mg twice daily; cited from earlier work.
Where [8] appears, read: Sprague-Dawley, rat, plasma, po, 10 mg/kg, rats, TOF 10 mg/kg oral, Control (TOF only, vehicle), median [interquartile range].
Setting [9] is: rats, TOF 10 mg/kg oral, Control (TOF only, vehicle), median [interquartile range].
Setting [10] is: rats, TOF 10 mg/kg oral, RTV 10 mg/kg, median [interquartile range].

Read-outs that look alike come from different tables or passages of the source.

The AUC(0-inf) is the area under the concentration-time curve extrapolated to infinity. In general, half-life refers to how long it takes for the measured level to halve. Higher therefore signals slow loss. For `C[C@@H]1CCN(C(=O)CC#N)C[C@@H]1N(C)c1ncnc2[nH]ccc12` [TOF, Tofacitinib], the “Increase in AUC of TOF” value in data set [1] (co-administration of fluconazole) was 79%; in data set [1] (co-administration of ketoconazole) it was 103%; in data set [2] (rats pretreated with fluconazole (inhibitor of CYP2C11)), 39%; in data set [2] (rats pretreated with ketoconazole (inhibitor of CYP3A1/2)) it was 46%; in data set [2] (rats, with voriconazole (inhibits CYP3A1/2 and CYP2C11)), 166%. In addition, the concentration at 12 h in data set [3] (Sprague-Dawley, rat, plasma, RTV 10 mg/kg, read-out: Lowest plasma concentration at 12 h) was found to be 1.5 ng/mL; in data set [3] (Sprague-Dawley, rat, plasma, RTV 10 mg/kg, read-out: Mean plasma concentration at 12 h) it was 21.9 ng/mL; in data set [3] (Sprague-Dawley, rat, plasma, RTV 20 mg/kg, read-out: Lowest plasma concentration at 12 h), 2.6 ng/mL; in data set [3] (Sprague-Dawley, rat, plasma, RTV 20 mg/kg, read-out: Mean plasma concentration at 12 h) it was 12.1 ng/mL. Besides, the AUC(0-inf) in data set [3] (setting [8]) was found to be 2720 ng·h/mL; in data set [3] (Sprague-Dawley, rat, plasma, po, 10 mg/kg, rats, TOF 10 mg/kg oral, RTV 20 mg/kg pretreatment and coadministration, median [interquartile range]), 16000 ng·h/mL. For the same compound, the half-life in data set [3] (setting [8]) was 1.21 h; in data set [3] (Sprague-Dawley, rat, plasma, po, 10 mg/kg, rats, TOF 10 mg/kg oral, RTV 10 mg/kg, median [interquartile range]), 1 h; in data set [3] (Sprague-Dawley, rat, plasma, po, 10 mg/kg, rats, TOF 10 mg/kg oral, RTV 20 mg/kg, median [interquartile range]) it was 0.87 h. Further, the Cmax is 2250 ng/mL in data set [3] (Sprague-Dawley, rat, plasma, po, 10 mg/kg, rats, TOF 10 mg/kg oral, RTV 10 mg/kg, median [interquartile range], read-out: Cmax); 3900 ng/mL in data set [3] (Sprague-Dawley, rat, plasma, po, 10 mg/kg, rats, TOF 10 mg/kg oral, RTV 20 mg/kg, median [interquartile range], read-out: Cmax); 1362 [1263–1410] ng/mL in data set [3] (setting [9]). For the same compound, the Tmax in data set [3] (Sprague-Dawley, rat, plasma, po, 10 mg/kg, read-out: Tmax) is 1 h; in data set [3] (setting [9]), 0.25 [0.25–0.5] h; in data set [3] (setting [10]), 0.5 [0.44–1.0] h. In addition, the CL in data set [3] (setting [9]) is 3.57 [2.65–4.49] L/h/kg; in data set [3] (setting [10]) it was 1.65 [1.19–2.11] L/h/kg; in data set [3] (rats, TOF 10 mg/kg oral, RTV 20 mg/kg, median [interquartile range]), 0.66 [0.60- 0.73] L/h/kg. In data set [3] (rats, TOF 10 mg/kg oral, RTV 10 and 20 mg/kg vs Control, p = 0.08), the “Change of half-life (t1/2) with RTV” value is listed as “remained unchanged”. For the same compound, the “Bioavailability (BA)” value in data set [4] is 29.1%. Also, the “Hepatic clearance as share of total clearance” value in data set [5] is 70%. Also, the “Renal clearance as share of total clearance” value in data set [5] is on record as 30%.

For the compound `C=CC[C@@H]1/C=C(\C)C[C@H](C)C[C@H](OC)[C@H]2O[C@@](O)(C(=O)C(=O)N3CCCC[C@H]3C(=O)O[C@H](/C(C)=C/[C@@H]3CC[C@@H](O)[C@H](OC)C3)[C@H](C)[C@@H](O)CC1=O)[C@H](C)C[C@@H]2OC` [Tacrolimus], the “Change in exposure on co-administration with RTV” value in data set [6] (patients undergoing long-term tacrolimus treatment) is given as “increase to toxic levels within 3 days”.

Turning to `CC(=O)N1CCN(c2ccc(OCC3COC(Cn4ccnc4)(c4ccc(Cl)cc4Cl)O3)cc2)CC1` (stereo not shown) [ketoconazole], the “Inhibition of the overall metabolism of TOF” value in the data set on CYP3A4 is “over 70%”.

Regarding `COc1ccc2c3c1O[C@H]1C(=O)CC[C@@]4(O)[C@@H](C2)N(C)CC[C@]314` [oxycodone], the “Change in exposure in the presence of RTV” value in data set [6] (in the presence of RTV) was “tripled”.

`C[C@@H](c1ncncc1F)[C@](O)(Cn1cncn1)c1ccc(F)cc1F` [voriconazole]: in data set [7], the “Decrease in steady-state AUC” value is listed as 82%.
